Test results reported in patent US8227499B2, “Substituted-aryl-(imidazole)-methyl)-phenyl compounds as subtype selective modulators of alpha 2B and/or alpha 2C adrenergic receptors” (Allergan, Inc., priority 2008, dated 2012).
Where two headings read alike, the source gives them in different places.

How the values were obtained:
[1] = molecular target: T1, alpha 2B receptor (Homo sapiens, UniProt P18089); experiment: Receptor Selection and Amplification technology (RSAT) assay, alpha 2B; type: cell-based; conditions: for Alpha 2B intrinsic activity (relative efficacy): RSAT, number in parentheses, ratio of maximal effect to that of standard full agonist brimonidine (UK14304)
T1 construct: expressed in transfected cells; host or cells: NIH-3T3 cells
T1 sequence (P18089 1-450): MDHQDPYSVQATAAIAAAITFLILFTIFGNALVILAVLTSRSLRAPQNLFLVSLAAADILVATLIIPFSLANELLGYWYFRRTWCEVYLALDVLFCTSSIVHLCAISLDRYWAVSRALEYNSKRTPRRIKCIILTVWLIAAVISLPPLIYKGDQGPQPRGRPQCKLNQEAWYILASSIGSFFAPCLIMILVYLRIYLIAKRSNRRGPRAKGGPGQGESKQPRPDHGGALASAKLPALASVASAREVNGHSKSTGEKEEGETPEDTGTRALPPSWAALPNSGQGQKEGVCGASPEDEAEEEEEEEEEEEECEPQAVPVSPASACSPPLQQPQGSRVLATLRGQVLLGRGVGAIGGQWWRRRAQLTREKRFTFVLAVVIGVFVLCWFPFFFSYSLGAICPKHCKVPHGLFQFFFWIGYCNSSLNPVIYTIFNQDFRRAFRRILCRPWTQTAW
Experimental: (§1) The RSAT assay measures a receptor-mediated loss of contact inhibition that results in selective proliferation of receptor-containing cells in a mixed population of confluent cells. The increase in cell number is assessed with an appropriate transfected marker gene such as β-galactosidase, the activity of which can be easily measured in a 96-well format. Receptors that activate the G protein, Gq, elicit this response. Alpha 2 receptors, which normally couple to Gi, activate the RSAT response when coexpressed with a hybrid Gq protein that has a G; receptor recognition domain, called Gq/i5.
(§2) NIH-3T3 cells are plated at a density of 2×10^6 cells in 15 cm dishes and maintained in Dulbecco's modified Eagle's medium supplemented with 10% calf serum. One day later, cells are cotransfected by calcium phosphate precipitation with mammalian expression plasmids encoding p-SV-β-galactosidase (5-10 μg), receptor (1-2 μg) and G protein (1-2 μg). 40 μg salmon sperm DNA may also be included in the transfection mixture. Fresh media is added on the following day and 1-2 days later, cells are harvested and frozen in 50 assay aliquots. Cells are thawed and 100 μl added to 100 μl aliquots of various concentrations of drugs in triplicate in 96-well dishes. Incubations continue 72-96 hr at 37° C. After washing with phosphate-buffered saline, .E-backward.-galactosidase enzyme activity is determined by adding 200 μl of the chromogenic substrate (consisting of 3.5 mM o-nitrophenyl-beta-D-galactopyranoside and 0.5% nonidet P-40 in phosphate buffered saline), incubating overnight at 30° C. and measuring optical density at 420 nm. The absorbance is a measure of enzyme activity, which depends on cell number and reflects a receptor-mediated cell proliferation. The efficacy or intrinsic activity is calculated as a ratio of the maximal effect of the drug to the maximal effect of a standard full agonist for each receptor subtype. Brimonidine, also called UK14304, the chemical structure of which is shown below, is used as the standard agonist for the alpha 2A, alpha 2B and alpha 2C receptors.

[2] = molecular target: T2, alpha 2C receptor (Homo sapiens, UniProt P18825); experiment: Receptor Selection and Amplification technology (RSAT) assay, alpha 2C; type: cell-based; conditions: for Alpha 2C intrinsic activity (relative efficacy): RSAT, number in parentheses, ratio of maximal effect to that of standard full agonist brimonidine (UK14304)
T2 construct: expressed in transfected cells; host or cells: NIH-3T3 cells
T2 sequence (P18825 1-462): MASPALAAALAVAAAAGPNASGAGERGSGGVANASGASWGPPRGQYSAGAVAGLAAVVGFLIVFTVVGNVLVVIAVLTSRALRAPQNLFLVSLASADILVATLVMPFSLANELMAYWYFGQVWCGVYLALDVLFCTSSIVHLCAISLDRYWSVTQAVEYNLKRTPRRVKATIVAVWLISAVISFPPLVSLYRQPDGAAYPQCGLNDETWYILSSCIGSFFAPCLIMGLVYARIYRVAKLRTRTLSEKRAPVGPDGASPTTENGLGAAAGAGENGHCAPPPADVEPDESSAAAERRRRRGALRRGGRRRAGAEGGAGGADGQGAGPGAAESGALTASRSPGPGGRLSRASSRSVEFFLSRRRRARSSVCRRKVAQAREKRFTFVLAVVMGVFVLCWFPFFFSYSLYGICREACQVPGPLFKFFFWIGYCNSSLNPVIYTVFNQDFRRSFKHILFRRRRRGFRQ
Description: The compounds disclosed herein are agonists of alpha 2B/2C adrenergic receptors. […] 76, pp. 308-311 (incorporated herein by reference) and is also described below. Another reference pertinent to this assay is Conklin et al. (1993) Nature 363: 274-6, also incorporated herein by reference.
as §1, §2

[3] = RSAT in transfected NIH-3T3 cells, number outside parentheses, read-out: Alpha 2B potency (EC50)
[4] = RSAT in transfected NIH-3T3 cells, number outside parentheses, read-out: Alpha 2C potency (EC50)

Compound | EC50 [1, 3] [µM] | Alpha 2B intrinsic activity (relative efficacy) [1] | EC50 [2, 4] [µM] | Alpha 2C intrinsic activity (relative efficacy) [2] | EC50 [1] [µM] | EC50 [2] [µM]
Cc1cccc(C(c2ccccc2)c2c[nH]cn2)c1C (stereo not shown) | 0.0018 | 1.23 | 0.091 | 1.02 | – | –
Fc1cccc(C(c2ccccc2)c2c[nH]cn2)c1F (stereo not shown) | 0.062 | 1.10 | – | No Data (.22) | – | –
Cc1c(Cl)cccc1C(c1ccccc1)c1c[nH]cn1 (stereo not shown) | 0.018 | 1.35 | 0.411 | .35 | – | –
Clc1cccc(C(c2ccccc2)c2c[nH]cn2)c1Cl (stereo not shown) | 0.0069 | 1.19 | 0.332 | .40 | – | –
Cc1ccccc1C(c1ccccc1)c1c[nH]cn1 (stereo not shown) | – | .99 | – | .64 | 0.055 | 1.9
Fc1c(C(c2ccccc2)c2c[nH]cn2)cccc1C(F)(F)F (stereo not shown) | 0.021 | .89 | – | No Data (.12) | – | –
Fc1c(Cl)cccc1C(c1ccccc1)c1c[nH]cn1 (stereo not shown) | 0.044 | .91 | – | No Data (.21) | – | –
Fc1cccc(C(c2ccccc2)c2c[nH]cn2)c1 (stereo not shown) | – | 1.00 | – | No Data (.15) | 0.332 | –
